# Data as given in patent US7544497B2, “Compositions for manipulating the lifespan and stress response of cells and organisms” (President and Fellows of Harvard College, priority 2003, dated 2009).
# Experiments:
# recombinant GST-Sir2 = recombinant GST-Sir2 (Saccharomyces cerevisiae, UniProt P06700); test: Sir2 deacetylation assay; format: biochemical, S. cerevisiae; conditions: in vitro dose-response
# Experimental: To investigate whether these compounds could stimulate sirtuins in vivo, we utilized S. cerevisiae, an organism in which the upstream regulators and downstream targets of Sir2 are relatively well understood.
# His6-tagged recombinant SIRT1 and GST-tagged recombinant Sir2 were prepared as previously described^26. From 0.1 to 1 μg of SIRT1 and 1.5 μg of Sir2 were used per deacetylation assay (in 50 μl total reaction) as previously described^26. SIRT1 assays and certain of those for Sir2 employed the p53-382 acetylated substrate (‘Fluor de Lys-SIRT1’, BIOMOL) rather than FdL.
# Themed compound libraries (BIOMOL) were used for primary and secondary screening. […] For water soluble compounds and negative controls, 1% v/v DMSO was added to the assay. […] HeLa cells were grown and the cellular deacetylation assays were performed and read, as above, but in full-volume 96-well microplates (Corning Costar 3595). […] Calculation of net fluorescence increases included subtraction of a blank value, which in the case of Sir2 was obtained by omitting the enzyme from the reaction and in the case of SIRT1 by adding an inhibitor (200 μM suramin or 1 mM nicotinamide) to the reaction prior to the acetylated substrate. […]
# Human 293 cells = test: Survival of 293 cells (Coulter counter); format: cell-based; conditions: 50 micromolar
# Experimental: Human 293 were grown to exponential phase under standard conditions and subjected to a dose of compound (50 micromolar) for 96 hours. The number of live cells each time point was counted using a Coulter counter.
# SIRT1 deacetylase = target: T1, SIRT1 deacetylase (Homo sapiens, UniProt Q96EB6); test: High-throughput SIRT1 screening protocol (384 well); format: biochemical; conditions: 200 μM NAD+, 5 μM Fluor de Lys-SIRT1 substrate; roughly 50 μM
# T1 construct: purchased BIOMOL
# T1 sequence (Q96EB6 1-747): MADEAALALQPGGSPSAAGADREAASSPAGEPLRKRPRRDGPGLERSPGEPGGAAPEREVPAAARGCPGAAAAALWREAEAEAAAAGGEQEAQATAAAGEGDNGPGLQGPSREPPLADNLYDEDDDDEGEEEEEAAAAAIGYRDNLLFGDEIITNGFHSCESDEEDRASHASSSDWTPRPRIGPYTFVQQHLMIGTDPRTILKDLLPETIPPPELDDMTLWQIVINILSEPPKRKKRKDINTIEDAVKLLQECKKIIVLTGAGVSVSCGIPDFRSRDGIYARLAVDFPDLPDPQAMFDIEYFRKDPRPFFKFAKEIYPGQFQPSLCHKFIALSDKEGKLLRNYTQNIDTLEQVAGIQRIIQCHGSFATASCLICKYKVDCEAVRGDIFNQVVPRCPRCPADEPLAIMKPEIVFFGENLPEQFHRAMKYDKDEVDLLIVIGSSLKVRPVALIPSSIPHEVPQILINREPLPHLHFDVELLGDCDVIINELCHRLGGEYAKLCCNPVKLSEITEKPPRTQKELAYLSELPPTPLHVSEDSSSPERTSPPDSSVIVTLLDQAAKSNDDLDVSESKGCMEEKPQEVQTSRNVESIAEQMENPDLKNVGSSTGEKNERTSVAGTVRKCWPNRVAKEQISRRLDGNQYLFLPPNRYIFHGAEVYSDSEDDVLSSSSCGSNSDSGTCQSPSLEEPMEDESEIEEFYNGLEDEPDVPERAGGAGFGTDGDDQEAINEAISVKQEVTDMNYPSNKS
# Experimental: The reaction mixture contains (final): 0.5 units/reaction SIRT1 deacetylase (BIOMOL); 200 μM NAD^+; 5 μM Fluor de Lys-SIRT1 substrate (BIOMOL); buffer (25 mM Tris/Cl, pH 8.0, 137 mM NaCl, 2.7 mM KCl, 1 mM MgCl2, and 1 mg/ml BSA). In addition, a reaction mixture containing no enzyme was made so that each well receiving compound has a corresponding “no enzyme control” well. Reactions were performed in black 384 well plates (NUNC) in a final volume of 25 μl/well.
# The reactions were started by combining enzyme and substrate in a reaction mixture immediately prior to aliquoting in plates (or substrate only for “no enzyme control” plates). Mixture were aliquoted to plates using Biotek μFill (Biotek Instruments). Control mixtures were manually added to designated wells. A library compound was added at a desired concentration by pin transfer to both “with enzyme” and “no enzyme” plates. Compounds were added in at least triplicate (with enzyme reaction in duplicate and no enzyme controls) at a final concentration of roughly 50 μM. The plates were incubated at 37° C. for 30-60 minutes. Then 25 μl of 1× Developer II (BIOMOL) plus 2 mM nicotinamide were added to all wells to stop the reactions. The reactions were left for at least 30 minutes at 37° C. for the signal to develop. The plates were read in a microplate-reading fluorometer capable of excitation at a wavelength in the range of 350-380 nm and detection of emitted light in the range of 440-460 nm. A read time of 0.1 sec per well was used.
# S. cerevisiae = test: Yeast replicative lifespan by micro-manipulation; conditions: for Average lifespan, growth on resveratrol: wild type untreated 21.0
# Chain of recombinant GST-Sir2 (P06700 whole entry): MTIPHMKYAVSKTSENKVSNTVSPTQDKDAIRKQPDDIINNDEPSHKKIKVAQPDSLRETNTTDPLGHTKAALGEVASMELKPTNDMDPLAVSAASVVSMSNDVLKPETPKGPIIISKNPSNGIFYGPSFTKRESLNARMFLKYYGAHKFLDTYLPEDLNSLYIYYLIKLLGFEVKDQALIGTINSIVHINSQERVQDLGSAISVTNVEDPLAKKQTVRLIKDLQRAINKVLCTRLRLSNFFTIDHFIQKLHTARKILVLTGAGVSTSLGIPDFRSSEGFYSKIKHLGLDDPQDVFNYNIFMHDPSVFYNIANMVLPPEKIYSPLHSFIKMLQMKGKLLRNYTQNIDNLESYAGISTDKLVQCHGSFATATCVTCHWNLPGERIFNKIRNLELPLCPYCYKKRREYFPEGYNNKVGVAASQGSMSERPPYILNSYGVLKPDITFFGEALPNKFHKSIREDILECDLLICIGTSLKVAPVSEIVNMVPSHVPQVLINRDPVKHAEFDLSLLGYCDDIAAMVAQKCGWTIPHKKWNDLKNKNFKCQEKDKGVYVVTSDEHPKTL
structure (smiles),measurement,setting,value
"Oc1ccc(/C=C/c2cc(O)cc(O)c2)cc1 [Resveratrol, 3,5,4′-Trihydroxy-trans-stilbene]",concentrations at which inhibition of Sir2 was seen,recombinant GST-Sir2,greater than 100 μM
same,Survival of 293 cells,Human 293 cells; 0 h,100%
same,Survival of 293 cells,Human 293 cells; 48 h,5%
same,Survival of 293 cells,Human 293 cells; 96 h,0%
same,activation of SIRT1 (positive controls),SIRT1 deacetylase,2.2 fold
same,Average lifespan,"S. cerevisiae; 10 μM, complete 2% glucose medium, wild type untreated 22.9",36.8 generations
same,"Average lifespan, growth on resveratrol",S. cerevisiae; 10 μM,35.7 generations
same,"Average lifespan, growth on resveratrol",S. cerevisiae; 100 μM,29.4 generations
same,"Average lifespan, growth on resveratrol",S. cerevisiae; 500 μM,29.3 generations
same,"Average lifespan, glucose-restricted+resveratrol (CR+R)",S. cerevisiae; glucose restriction,39.9 generations
same,"Average lifespan, pnc1Δ+resveratrol",S. cerevisiae; pnc1Δ untreated 19.2,33.1 generations
same,"Average lifespan, sir2Δ+resveratrol",S. cerevisiae; sir2Δ untreated 9.9,10.0 generations
same,"Average lifespan, wild type+resveratrol (wt+R)",S. cerevisiae; wild type untreated 19.0,37.8 generations
